Measured values as given in patent US12686692B2, “KRas G12D inhibitors” (Mirati Therapeutics, Inc., priority 2020, dated 2026).
pIC50: −log10 of the molar value.

Target: KRas G12D (Homo sapiens, UniProt P01116, G12D)
Test: KRas G12D Binding Assay (TR-FRET displacement of labeled tracer)
Design: corresponding to amino acids 1:169, produced at Array BioPharma; biotin (protein is biotinylated)
Settings: TR-FRET displacement of Cy5 labelled tracer, biotinylated GDP-loaded KRAS G12D (aa 1:169), 60 minute incubation at 22° C.
Protocol: This Example illustrates that exemplary compounds of the present invention bind to KRas G12D and are capable of displacing a labeled tracer ligand occupying the KRas G12D binding site.
The ability of a compound to bind to KRAS G12D was measured using a TR-FRET displacement assay. Biotinylated GDP-loaded recombinant human KRAS G12D (corresponding to amino acids 1:169, produced at Array BioPharma) was incubated with a custom-made Cy5 labelled tracer, europium labelled streptavidin and compound (2% DMSO final) in buffer (50 mM HEPES [pH 7.5], 5 mM MgCl2, 0.005% Tween-20 & 1 mM DTT). After a 60 minute incubation at 22° C., the reaction was measured using a PerkinElmer EnVision multimode plate reader via TR-FRET dual wavelength detection, and the percent of control (POC) calculated using a ratiometric emission factor. […] The POC values were fit to a 4-parameter logistic curve and the IC50 value was determined as the concentration where the curve crosses 50 POC.

Sequence of KRas G12D (P01116 1-169 isoform P01116-2 G12D): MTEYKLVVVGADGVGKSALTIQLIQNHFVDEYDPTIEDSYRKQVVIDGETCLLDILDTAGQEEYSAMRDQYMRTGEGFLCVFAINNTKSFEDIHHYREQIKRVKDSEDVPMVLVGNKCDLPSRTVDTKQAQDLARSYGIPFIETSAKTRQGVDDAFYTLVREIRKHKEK

| Compound | pIC50 |
| --- | --- |
| CCc1cccc2cccc(N3CCc4c(nc(OC[C@@]56CCCN5C[C@H](F)C6)nc4C4CC5CCC(N5)C4O)C3)c12 (stereo in doubt) [Example 123, (1S,3R,5R)-3-(7-(8-ethylnaphthalen-1-yl)-2-(((2R,7aS)-2-fluorotetrahydro-1H-pyrrolizin-7a(5H)-yl)methoxy)-5,6,7,8-tetrahydropyrido[3,4-d]pyrimidin-4-yl)-8-azabicyclo[3.2.1]octan-2-ol] | 6.29 |
| CN1CCC[C@H]1COc1nc2c(c(N3CC4CC(O)(C(F)F)C(C3)N4)n1)CCN(c1cccc3cccc(Cl)c13)C2 (stereo partly drawn) [Example 41, 3-(7-(8-chloronaphthalen-1-yl)-2-(((S)-1-methylpyrrolidin-2-yl)methoxy)-5,6,7,8-tetrahydropyrido[3,4-d]pyrimidin-4-yl)-6-(difluoromethyl)-3,8-diazabicyclo[3.2.1]octan-6-ol] | 5.50 |
| CN1CCC[C@H]1COc1nc2c(c(N3CC4CCC(CC#N)(C3)N4)n1)CCN(c1cccc3cccc(Cl)c13)C2 (stereo partly drawn) [Example 42, 2-(3-(7-(8-chloronaphthalen-1-yl)-2-(((S)-1-methylpyrrolidin-2-yl)methoxy)-5,6,7,8-tetrahydropyrido[3,4-d]pyrimidin-4-yl)-3,8-diazabicyclo[3.2.1]octan-1-yl)acetonitrile] | 5.74 |
| CN1CCC[C@H]1COc1nc2c(c(N3C[C@H]4CC[C@@H](C3)N4)n1)CCN(c1nc(N)cc3ccccc13)C2 [Example 60, 1-(4-((1R,5S)-3,8-diazabicyclo[3.2.1]octan-3-yl)-2-(((S)-1-methylpyrrolidin-2-yl)methoxy)-5,8-dihydropyrido[3,4-d]pyrimidin-7(6H)-yl)isoquinolin-3-amine] | < 5.00 |
| CN1CCC[C@H]1COc1nc2c(c(N3C[C@H]4C[C@@H](C#N)[C@@H](C3)N4)n1)CCN(c1cccc3cccc(Cl)c13)C2 [Example 92, (1R,5S,6R)-3-(7-(8-chloronaphthalen-1-yl)-2-(((S)-1-methylpyrrolidin-2-yl)methoxy)-5,6,7,8-tetrahydropyrido[3,4-d]pyrimidin-4-yl)-3,8-diazabicyclo[3.2.1]octane-6-carbonitrile] | 5.26 |
| c1cc2c(c(N3CCc4c(nc(OCC56CCCN5CCC6)nc4N4C[C@H]5CC[C@@H](C4)N5)C3)c1)C(C1CC1)CC2 (stereo partly drawn) [Example 102, 4-((1R,5S)-3,8-diazabicyclo[3.2.1]octan-3-yl)-7-(3-cyclopropyl-2,3-dihydro-1H-inden-4-yl)-2-((tetrahydro-1H-pyrrolizin-7a(5H)-yl)methoxy)-5,6,7,8-tetrahydropyrido[3,4-d]pyrimidine] | 6.18 |
| c1cc2c(c(N3CCc4c(nc(OCC56CCCN5CCC6)nc4N4C[C@H]5CC[C@@H](C4)N5)C3)c1)CCC2 [Example 104, 4-((1R,5S)-3,8-diazabicyclo[3.2.1]octan-3-yl)-7-(2,3-dihydro-1H-inden-4-yl)-2-((tetrahydro-1H-pyrrolizin-7a(5H)-yl)methoxy)-5,6,7,8-tetrahydropyrido[3,4-d]pyrimidine] | 6.12 |
| CN1CCC[C@H]1COc1nc2c(c(N3C[C@H]4CC[C@@H](C3)N4)n1)CCN(c1cccc3cc(O)cc(Cl)c13)C2 [Example 113, 5-(4-((1R,5S)-3,8-diazabicyclo[3.2.1]octan-3-yl)-2-(((S)-1-methylpyrrolidin-2-yl)methoxy)-5,6-dihydropyrido[3,4-d]pyrimidin-7(8H)-yl)-4-chloronaphthalen-2-ol] | 6.09 |
| CCc1cccc2cccc(N3CCc4c(nc(OC[C@@]56CCCN5C[C@H](F)C6)nc4[C@@H]4C[C@H]5CC[C@@H](C4)N5)C3)c12 [Example 122, 4-((1R,3s,5S)-8-azabicyclo[3.2.1]octan-3-yl)-7-(8-ethylnaphthalen-1-yl)-2-(((2R,7aS)-2-fluorotetrahydro-1H-pyrrolizin-7a(5H)-yl)methoxy)-5,6,7,8-tetrahydropyrido[3,4-d]pyrimidine] | 6.63 |

Second part, the compound after the results:

| pIC50 | Compound |
| --- | --- |
| 6.07 | COC[C@H]1C[C@@H]2CN(c3nc(OC[C@@H]4CCCN4C)nc4c3CCN(c3cccc5cccc(Cl)c35)C4)C[C@H]1N2 (single isomer, unassigned) [Example 94] |
| 6.46 | Clc1ccc2cccc(N3CCc4c(nc(OCC56CCCN5CCC6)nc4N4C[C@H]5CC[C@@H](C4)N5)C3)c2c1Cl [Example 12, 4-((1R,5S)-3,8-diazabicyclo[3.2.1]octan-3-yl)-7-(7,8-dichloronaphthalen-1-yl)-2-((tetrahydro-1H-pyrrolizin-7a(5H)-yl)methoxy)-5,6,7,8-tetrahydropyrido[3,4-d]pyrimidine] |
| 5.10 | CN1CCC[C@H]1COc1nc2c(c(N3C[C@H]4CC[C@@H](C3)N4)n1)CCN(c1cccc3c(Cl)cccc13)C2 [Example 15, 4-((1R,5S)-3,8-diazabicyclo[3.2.1]octan-3-yl)-7-(5-chloronaphthalen-1-yl)-2-(((S)-1-methylpyrrolidin-2-yl)methoxy)-5,6,7,8-tetrahydropyrido[3,4-d]pyrimidine] |
| 5.75 | CN1CCC[C@H]1COc1nc2c(c(N3C[C@H]4CC[C@@H](C3)N4)n1)CCN(c1cccc3c(F)cccc13)C2 [Example 16, 4-((1R,5S)-3,8-diazabicyclo[3.2.1]octan-3-yl)-7-(5-fluoronaphthalen-1-yl)-2-(((S)-1-methylpyrrolidin-2-yl)methoxy)-5,6,7,8-tetrahydropyrido[3,4-d]pyrimidine] |
| 7.91 | CNC(=O)OC[C@H]1CCC2(COc3nc4c(c(N5CC6CCC(C5)N6)n3)CCN(c3cccc5cccc(C)c35)C4)CCCN12 (stereo partly drawn) [Example 21, (7a-(((4-((1R,5S)-3,8-diazabicyclo[3.2.1]octan-3-yl)-7-(8-methylnaphthalen-1-yl)-5,6,7,8-tetrahydropyrido[3,4-d]pyrimidin-2-yl)oxy)methyl)hexahydro-1H-pyrrolizin-3-yl)methyl methylcarbamate (trans enantiomers)] |
| 5.93 | CC(C)c1ccccc1N1CCc2c(nc(OCC34CCCN3[C@@H](COC(=O)N(C)C)CC4)nc2N2CC3CCC(C2)N3)C1 (stereo partly drawn) [Example 32, (7a-(((4-((1R,5S)-3,8-diazabicyclo[3.2.1]octan-3-yl)-7-(2-isopropylphenyl)-5,6,7,8-tetrahydropyrido[3,4-d]pyrimidin-2-yl)oxy)methyl)hexahydro-1H-pyrrolizin-3-yl)methyl dimethylcarbamate (trans enantiomers)] |
| 5.57 | CN1CCC[C@H]1COc1nc2c(c(N3C[C@H]4C[C@@H](CCN)[C@@H](C3)N4)n1)CCN(c1cccc3cccc(Cl)c13)C2 [Example 39, 2-((1R,5S,6R)-3-(7-(8-chloronaphthalen-1-yl)-2-(((S)-1-methylpyrrolidin-2-yl)methoxy)-5,6,7,8-tetrahydropyrido[3,4-d]pyrimidin-4-yl)-3,8-diazabicyclo[3.2.1]octan-6-yl)ethan-1-amine] |
| 6.15 | CCCCc1cccc2cccc(N3CCc4c(nc(OC[C@@H]5CCCN5C)nc4N4C[C@H]5CC[C@@H](C4)N5)C3)c12 [Example 81, 4-((1R,5S)-3,8-diazabicyclo[3.2.1]octan-3-yl)-7-(8-butylnaphthalen-1-yl)-2-(((S)-1-methylpyrrolidin-2-yl)methoxy)-5,6,7,8-tetrahydropyrido[3,4-d]pyrimidine] |
| 5.60 | FC1(F)CCc2c(N3CCc4c(nc(OCC56CCCN5CCC6)nc4N4C[C@H]5CC[C@@H](C4)N5)C3)cccc21 [Example 101, 4-((1R,5S)-3,8-diazabicyclo[3.2.1]octan-3-yl)-7-(1,1-difluoro-2,3-dihydro-1H-inden-4-yl)-2-((tetrahydro-1H-pyrrolizin-7a(5H)-yl)methoxy)-5,6,7,8-tetrahydropyrido[3,4-d]pyrimidine] |
| 5.98 | Brc1cc(N2CCc3c(nc(OCC45CCCN4CCC5)nc3N3C[C@H]4CC[C@@H](C3)N4)C2)c2ccccc2c1 [Example 111, 4-((1R,5S)-3,8-diazabicyclo[3.2.1]octan-3-yl)-7-(3-bromonaphthalen-1-yl)-2-((tetrahydro-1H-pyrrolizin-7a(5H)-yl)methoxy)-5,6,7,8-tetrahydropyrido[3,4-d]pyrimidine] |
| 8.68 | CCc1c(F)ccc2cc(O)cc(N3CCc4c(nc(OC[C@@]56CCCN5C[C@H](F)C6)nc4N4C[C@H]5CC[C@@H](C4)N5)C3)c12 [Example 118, 4-(4-((1R,5S)-3,8-diazabicyclo[3.2.1]octan-3-yl)-2-(((2R,7aS)-2-fluorohexahydro-1H-pyrrolizin-7a-yl)methoxy)-5,6-dihydropyrido[3,4-d]pyrimidin-7(8H)-yl)-5-ethyl-6-fluoronaphthalen-2-ol] |
